According to PubChem BioAssay AID1949 (Southern Research Institute, 2009):
In brackets after ≈: the same amount, converted by molar mass. Results filed as inconclusive are left out. Activity calls are given as the source filed them. The rule behind the calls is not given here.

System: M. tuberculosis H37Rv growth inhibition
Test: Confirmatory growth inhibition assay against Mycobacterium tuberculosis H37Rv, potency (AID 1949);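 note: bacteria grown 7 days with compound before Alamar blue readout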

Compound	IC50
Cc1nc2c(o1)C1(C(=O)N2C)C(C#N)=C(N)N(c2ccccc2)c2ccccc21 (stereo not drawn)	6.25 µg/mL (≈ 16.3 µM)
Cc1cc(OC(=O)C2CC2)c2c3c(c(=O)oc2c1)CCCC3	1.44 µg/mL (≈ 4.83 µM)
FC(F)(F)c1cccc(-n2cc(-c3ccccc3)c3c(NCc4cccnc4)ncnc32)c1	1.51 µg/mL (≈ 3.39 µM)
O=C(CC1(O)C(=O)N(CCc2ccccc2)c2ccc(Cl)cc21)c1ccccn1 (stereo not drawn)	5.07 µg/mL (≈ 12.5 µM)
O=C(CCSc1nnc(-c2ccccc2)o1)Nc1ccc(F)cc1	5.2 µg/mL (≈ 15.1 µM)
CC(=O)c1ccc(OC(=O)c2sc3ccccc3c2Cl)cc1	> 50 µg/mL (inactive)
COC(=O)Cc1c(C)c2ccc(OCC(=O)OCc3ccccc3)c(C)c2oc1=O	0.11 µg/mL (≈ 0.268 µM)
O=[N+]([O-])c1nn(-c2ccccc2)[n+]([O-])c1N1CCCC1	11.9 µg/mL (≈ 43.1 µM)
COC(=O)C(C)Oc1ccc2c(=O)c(-c3ccc(Br)cc3)c(C)oc2c1 (stereo not drawn)	2.42 µg/mL (≈ 5.8 µM)
CCc1ccc(Nc2ncnc3ccc(Br)cc23)cc1	4.16 µg/mL (≈ 12.7 µM)
Cc1cc(Cl)ccc1OCC(O)CNC(C)c1ccccc1 (stereo not drawn)	8.02 µg/mL (≈ 25.1 µM)
CCOC(=O)Cn1cc(/C=C(/C#N)c2nc3ccc(OC)cc3[nH]2)c2ccccc21	0.74 µg/mL (≈ 1.85 µM)
O=C(CS(=O)(=O)c1ccc2ccccc2c1)Nc1ccccc1Cl	4.48 µg/mL (≈ 12.5 µM)
Oc1cccc2ccc(/C=C/c3cccc(F)c3)nc12	0.13 µg/mL (≈ 0.49 µM)
Cc1ccc(NC(=S)Nc2cc(C)[nH]n2)c(Cl)c1	22.2 µg/mL (≈ 79.2 µM)
Cc1ccc(SCC(=O)Nc2cccc(F)c2)cc1	5.34 µg/mL (≈ 19.4 µM)
CCc1ccc(OCC(=O)NC2CCCCC2)c(Br)c1	> 50 µg/mL (inactive)
CN(CCOCCOc1ccc(I)cc1)Cc1ccccc1	6.75 µg/mL (≈ 16.4 µM)
Cc1cc(O)ccc1N1C(=O)c2cccc3c([N+](=O)[O-])ccc(c23)C1=O	21.3 µg/mL (≈ 61.1 µM)
O=C(Nc1ccc(C(F)(F)F)cc1)Nc1cccc(F)c1	0.76 µg/mL (≈ 2.55 µM)

Compound	IC50
O=C(NCCC1=CCCCC1)C12CC3CC(CC(C3)C1)C2	11.2 µg/mL (≈ 39 µM)
COc1cc([N+](=O)[O-])ccc1NC(=S)Nc1ccc(OC(F)F)c(Cl)c1	3.41 µg/mL (≈ 8.44 µM)
CC(=O)Oc1cccc2ccc(/C=C/c3ccc(F)cc3)nc12	< 0.1 µg/mL
Cc1ccc(-n2sc3ccccc3c2=O)cc1	< 0.1 µg/mL
O=C(CCN1CCc2ccccc2CC1)c1ccc2c(c1)OCCO2	8.36 µg/mL (≈ 24.8 µM)
CCc1c(C)sc(NC(=S)NC2CCN(Cc3ccccc3)CC2)c1C(=O)OC	1.69 µg/mL (≈ 3.92 µM)
CCOC(=O)COc1ccc2c(=O)c(Oc3cccc(OC)c3)coc2c1	27.2 µg/mL (≈ 73.4 µM)
O=C(NCCCn1ccnc1)c1cc(-c2ccc(Br)cc2)nc2ccccc12	9.43 µg/mL (≈ 21.7 µM)
N#C/C(=C/c1ccc(N2CCCCC2)o1)c1cccc(F)c1	5.98 µg/mL (≈ 20.2 µM)
Nc1nnc(Sc2ccc([N+](=O)[O-])c3ncccc23)s1	3.47 µg/mL (≈ 11.4 µM)
CCN(CC)c1ccc(NC(=O)C(C)Oc2cccc(Cl)c2)cc1 (stereo not drawn)	6.4 µg/mL (≈ 18.5 µM)
Cc1cc(C)cc(C(=O)Nc2ccc(N3CCN(C(=O)c4cccs4)CC3)c(Cl)c2)c1	15.5 µg/mL (≈ 34.2 µM)
O=C(COc1ccc(Cl)cc1Cl)Oc1cccc2cccnc12	5.88 µg/mL (≈ 16.9 µM)
CC(=O)NC(=S)NNC(=O)c1ccc(C(C)(C)C)cc1	0.29 µg/mL (≈ 0.988 µM)
COc1ccc(C(=S)N2CC(C)OC(C)C2)c(OC)c1 (stereo not drawn)	> 50 µg/mL (inactive)
COc1cccc(C2Oc3ccccc3C=C2[N+](=O)[O-])c1OC (stereo not drawn)	> 50 µg/mL (inactive)
Cc1cc(Nc2cccc(Cl)c2)nc(NCc2ccccc2)n1	1.39 µg/mL (≈ 4.28 µM)
Cc1ccc(C(=O)NC(=S)Nc2cccc(NC(=O)c3cccs3)c2)c(C)c1	6.96 µg/mL (≈ 17 µM)
COC(=O)C(C)Oc1ccc2c3c(c(=O)oc2c1)CCCCC3 (stereo not drawn)	> 50 µg/mL (inactive)
Cc1cc(C)cc(OCC(=O)c2ccc(Br)cc2)c1	6.8 µg/mL (≈ 21.3 µM)

Compound	IC50
COc1ccc(/C=C/c2nc3ccccc3c(=O)o2)cc1	27.6 µg/mL (≈ 99 µM)
Cc1ccc(N2CC(C(=O)OCc3cccc(C(=O)Oc4ccccc4)c3)CC2=O)cc1 (stereo not drawn)	> 50 µg/mL (inactive)
Oc1ccc(Br)c2cccnc12	< 0.1 µg/mL
CN1CCC(O)(c2cccs2)C(C(=O)c2cccs2)C1 (stereo not drawn)	1.54 µg/mL (≈ 5.01 µM)
OC(COc1ccc2ccccc2c1Br)Cn1ccnc1 (stereo not drawn)	5.39 µg/mL (≈ 15.5 µM)
COc1ccc(-c2nc(NC(=O)c3ccccc3)n[nH]2)cc1OC	1.5 µg/mL (≈ 4.62 µM)
OC(COc1ccccc1Br)CN1CCN(C(c2ccccc2)c2ccccc2)CC1 (stereo not drawn)	5.33 µg/mL (≈ 11.1 µM)
Clc1ccc(C2=CC(c3ccc(Cl)cc3)n3nnnc3N2)cc1 (stereo not drawn)	2.07 µg/mL (≈ 6.01 µM)
Clc1ccc(OCCn2ccnc2)cc1Cl	7.53 µg/mL (≈ 29.3 µM)
CCCCCn1c(NCc2ccc(N(C)C)cc2)nc2ccccc21	2.9 µg/mL (≈ 8.62 µM)
c1ccc2cc(OCCCn3ccnc3)ccc2c1	10.3 µg/mL (≈ 40.9 µM)
CCCOc1ccccc1NC(=O)Nc1ccc(Cl)c(Cl)c1	1.71 µg/mL (≈ 5.04 µM)
Cc1ccc(Cc2ccc(C(=O)Nc3ccc(C)c(C)c3)o2)cc1	0.18 µg/mL (≈ 0.564 µM)
CCCCSc1ccc(NCCC(=O)c2ccco2)cc1	0.42 µg/mL (≈ 1.38 µM)
CC(=O)Oc1c(/C=C(\C#N)C(N)=O)[nH]c2ccccc12	5.98 µg/mL (≈ 22.2 µM)
O=C(Oc1ccccc1)c1cccc2cccnc12	0.99 µg/mL (≈ 3.97 µM)
O=C(Nc1ccccc1-c1ccccc1)C(Cl)(Cl)Cl	2.44 µg/mL (≈ 7.76 µM)
Clc1ccc(Nc2nc(-c3ccccn3)cs2)nc1	< 0.1 µg/mL
